The subject of one assay is phospho-Cofilin (pCFL). In words: Western blot of phospho-cofilin in HuCCT1 cells. Format: cell-based, human. Particulars: HuCCT1, 6 h. As to the method: (§1) HuCCT1 cell line was cultured in Roswell Park Memorial Institute (RPMI) 1640 medium supplemented with GlutaMAX, 10% fetal bovine serum (FBS), and 1% penicillin/streptomycin. The cell line was maintained in an incubator with 5% CO2 at 37 °C. For the treatment, 3 × 10^5 cells were plated and treated with the compounds and DMSO as the control for 6 h. The cells were then lysed using RIPA buffer (50 mM Tris-HCl pH 7.4, 150 mM NaCl, 1% Triton X-100, 1% NaDOC, 0.1% SDS, 1 mM EDTA), freshly supplemented with protease and phosphatase inhibitor cocktails (Sigma-Aldrich, Darmstadt, Germany). After 1 h incubation on ice, the lysates were centrifuged for 30 min at […], and the protein-containing supernatant was collected. The protein concentrations were determined using Protein Assay Dye Reagent Concentrate (Bradford, Bio-Rad, Hercules, CA, USA) and Pre-Diluted Protein Assay Standards: Bovine Serum Albumin (BSA) Set (Thermo Fisher Scientific, Darmstadt, Germany). Then, equal amounts of protein was mixed with Roti-Load 1 dye (Carl Roth, Karlsruhe, Germany) and 4x Laemmli Buffer (Bio-Rad, Hercules, CA, USA), denatured at 95 °C, and run on NuPAGE 4–12% bis-Tris gels (Thermo Fisher Scientific). Proteins were blotted on methanol-activated PVDF Transfer Membranes (Thermo Fisher Scientific) using the wet transfer method with the transfer buffer (Thermo Fisher Scientific) and 20% methanol. […]
Background: A western blot detects proteins with antibodies after separation by electrophoresis.

A further assay has as its target T1, EGFP–LIMK2 (Homo sapiens, UniProt P53671).
T1 construct: P2A remnant (from EGFP-LIMK2-P2A-mCherry; that residues stay on LIMK2 after self-cleavage is own knowledge) (C); expressed in transfected cells; host or cells: HuCCT1 (lentiviral transduction, doxycycline-inducible pCW57 vector)
In words: EGFP-LIMK2 depletion live-cell assay (Incucyte). The format is cell-based.

A further assay concerns the target T2, LIMK1 (Homo sapiens, UniProt P53667).
T2 construct: host or cells: HEK293T
In words: Western blot of endogenous LIMK1 in HuCCT1 cells. The format is cell-based. Particulars: HuCCT1, 6 h treatment. How it is done: as §1

Consider one compound from paper PMC13184981, “Discovery and Development of a Potent LIMK2 Isoform-Specific Degrader” (ACS Chemical Biology, 2026).

T1 sequence (P53671 whole entry): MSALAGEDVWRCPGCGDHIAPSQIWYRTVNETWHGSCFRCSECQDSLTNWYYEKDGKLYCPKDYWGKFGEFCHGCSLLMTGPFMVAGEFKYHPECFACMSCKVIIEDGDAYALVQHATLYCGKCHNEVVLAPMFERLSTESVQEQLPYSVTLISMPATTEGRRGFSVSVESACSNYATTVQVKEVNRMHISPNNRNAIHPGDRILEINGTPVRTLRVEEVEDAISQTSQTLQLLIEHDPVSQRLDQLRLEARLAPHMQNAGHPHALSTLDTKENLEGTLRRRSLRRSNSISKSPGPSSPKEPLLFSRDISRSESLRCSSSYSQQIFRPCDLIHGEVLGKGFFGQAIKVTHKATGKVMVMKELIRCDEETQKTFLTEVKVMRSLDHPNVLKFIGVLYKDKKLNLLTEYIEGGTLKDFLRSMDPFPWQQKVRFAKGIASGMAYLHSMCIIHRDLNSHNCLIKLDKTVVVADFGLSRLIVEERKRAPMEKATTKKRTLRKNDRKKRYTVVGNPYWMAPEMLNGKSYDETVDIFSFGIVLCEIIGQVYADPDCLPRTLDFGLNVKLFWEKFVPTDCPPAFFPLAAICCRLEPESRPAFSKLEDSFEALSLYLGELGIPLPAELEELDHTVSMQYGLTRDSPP
T2 sequence (P53667 whole entry): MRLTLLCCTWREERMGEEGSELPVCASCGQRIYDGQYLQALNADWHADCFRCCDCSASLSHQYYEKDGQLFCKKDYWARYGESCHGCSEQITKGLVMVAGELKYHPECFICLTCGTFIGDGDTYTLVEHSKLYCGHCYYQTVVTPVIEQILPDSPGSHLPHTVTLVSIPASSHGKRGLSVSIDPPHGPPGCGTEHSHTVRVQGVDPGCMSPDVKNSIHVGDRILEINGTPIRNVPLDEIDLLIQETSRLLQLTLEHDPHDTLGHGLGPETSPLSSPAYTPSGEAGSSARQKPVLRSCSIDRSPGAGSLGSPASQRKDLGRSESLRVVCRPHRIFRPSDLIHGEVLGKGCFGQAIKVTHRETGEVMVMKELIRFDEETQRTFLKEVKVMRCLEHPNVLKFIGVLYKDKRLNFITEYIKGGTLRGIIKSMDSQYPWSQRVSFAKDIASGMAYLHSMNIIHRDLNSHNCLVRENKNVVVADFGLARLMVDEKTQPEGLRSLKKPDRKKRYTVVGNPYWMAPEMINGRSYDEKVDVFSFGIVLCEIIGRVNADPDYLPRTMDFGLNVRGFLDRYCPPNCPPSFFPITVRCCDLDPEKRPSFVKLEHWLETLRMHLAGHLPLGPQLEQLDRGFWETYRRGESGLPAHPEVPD

Take `Cc1c(OCc2cn(CCCCC(=O)Nc3ncc(-c4cc(C(F)F)nn4-c4c(Cl)cccc4Cl)s3)nn2)cccc1N1CCC(=O)NC1=O` [22b]: in the assay with phospho-Cofilin (pCFL), the “pCFL levels (Western blot)” value was “no significant changes in pCFL”. Further, the Dmax at EGFP–LIMK2 (0.01 nM PROTAC) was found to be 4.5%; at EGFP–LIMK2 (10000 nM PROTAC) it was 96.1%. The “LIMK1 degradation (Western blot)” value at LIMK1 was “LIMK1 protein levels remained unaffected”.
